Measurements from patent publication US20090239881A1 (Boehringer Ingelheim International GmbH, priority 2006, published 2009).

How the values were obtained:
[1] = after ingestion; cited from earlier work
[2] = system: Sexual Disorders and/or Dysfunctions; test: Studies of female patients suffering from Sexual Disorders; assay type: in vivo, human
5-HT1A receptor = target: T1, 5-HT1A receptor (Homo sapiens, UniProt P08908); conditions: cited from earlier work
T1 sequence (P08908 1-422): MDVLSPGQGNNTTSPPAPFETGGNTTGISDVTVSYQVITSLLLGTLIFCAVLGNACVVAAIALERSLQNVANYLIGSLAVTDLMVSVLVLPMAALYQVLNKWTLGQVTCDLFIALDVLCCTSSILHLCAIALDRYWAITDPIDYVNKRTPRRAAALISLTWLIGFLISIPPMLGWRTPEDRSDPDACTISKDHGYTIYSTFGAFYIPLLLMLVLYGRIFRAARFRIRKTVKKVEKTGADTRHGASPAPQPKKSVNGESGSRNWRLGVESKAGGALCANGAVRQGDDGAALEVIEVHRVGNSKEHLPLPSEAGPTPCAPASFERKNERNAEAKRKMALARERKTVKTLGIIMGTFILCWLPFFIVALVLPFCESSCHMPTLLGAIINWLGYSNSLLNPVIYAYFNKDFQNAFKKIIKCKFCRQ

5-HT2-receptor = conditions: cited from earlier work
[3] = known use of flibanserin; cited from earlier work

Compound	physiological half-life [1]	effect on Sexual Disorders and/or Dysfunctions [2]	affinity for the 5-HT1A receptor (5-HT1A receptor)	affinity for the 5-HT2-receptor (5-HT2-receptor)	side effects (sedation) [3]
Cn1c(=O)c2c(ncn2C)n(C)c1=O [caffeine]	three and a half to six				
O=c1[nH]c2ccccc2n1CCN1CCN(c2cccc(C(F)(F)F)c2)CC1 [flibanserin, 1-[2-(4-(3-trifluoromethyl-phenyl)piperazin-1-yl)ethyl]-2,3-dihydro-1H-benzimidazol-2-one]		positive effect	shows affinity	shows affinity	sometimes mild or moderate symptoms such as sedation may occur
